Target: T1, sGC α1/β1 heterodimer (Homo sapiens, UniProt Q02108+Q02153)
T1 construct: expressed in transfected cells; host or cells: CHO-K1 (clone #7, CHO-K1/sGC)
T1 sequence (Q02108 1-690): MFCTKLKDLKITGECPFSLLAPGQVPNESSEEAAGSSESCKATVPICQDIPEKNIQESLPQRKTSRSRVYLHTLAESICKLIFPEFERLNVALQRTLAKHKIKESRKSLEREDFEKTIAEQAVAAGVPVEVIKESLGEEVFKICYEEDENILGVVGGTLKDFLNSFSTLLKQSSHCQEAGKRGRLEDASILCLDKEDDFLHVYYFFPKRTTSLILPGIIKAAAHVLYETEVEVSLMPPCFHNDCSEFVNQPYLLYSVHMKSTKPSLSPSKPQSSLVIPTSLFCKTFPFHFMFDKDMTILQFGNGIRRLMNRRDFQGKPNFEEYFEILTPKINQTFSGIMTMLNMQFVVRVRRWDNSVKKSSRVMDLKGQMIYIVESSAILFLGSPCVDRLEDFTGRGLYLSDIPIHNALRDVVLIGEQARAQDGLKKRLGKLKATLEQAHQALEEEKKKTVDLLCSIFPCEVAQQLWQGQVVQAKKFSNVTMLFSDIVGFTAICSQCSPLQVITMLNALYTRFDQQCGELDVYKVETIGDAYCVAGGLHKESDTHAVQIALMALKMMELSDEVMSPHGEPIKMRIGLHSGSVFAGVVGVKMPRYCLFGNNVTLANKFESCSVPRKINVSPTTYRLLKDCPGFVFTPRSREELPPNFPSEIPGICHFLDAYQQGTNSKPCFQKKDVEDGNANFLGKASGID
T1 sequence (Q02153 1-619): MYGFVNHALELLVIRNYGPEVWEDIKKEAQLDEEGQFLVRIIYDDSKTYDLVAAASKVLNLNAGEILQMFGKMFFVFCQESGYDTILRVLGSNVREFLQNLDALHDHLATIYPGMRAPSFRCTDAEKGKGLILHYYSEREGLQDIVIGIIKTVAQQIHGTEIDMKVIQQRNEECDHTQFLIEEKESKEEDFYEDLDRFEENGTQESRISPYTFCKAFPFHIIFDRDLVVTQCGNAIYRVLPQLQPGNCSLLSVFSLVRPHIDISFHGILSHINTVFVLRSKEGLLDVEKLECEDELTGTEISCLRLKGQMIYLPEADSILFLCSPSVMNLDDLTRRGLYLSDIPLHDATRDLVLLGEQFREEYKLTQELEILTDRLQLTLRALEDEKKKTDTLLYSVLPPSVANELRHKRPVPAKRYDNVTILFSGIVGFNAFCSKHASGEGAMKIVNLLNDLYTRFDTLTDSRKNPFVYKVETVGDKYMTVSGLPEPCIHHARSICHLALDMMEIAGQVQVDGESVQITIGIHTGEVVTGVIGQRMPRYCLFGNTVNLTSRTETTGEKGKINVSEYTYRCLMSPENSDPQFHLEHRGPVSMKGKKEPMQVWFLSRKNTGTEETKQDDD
Assay: Cell-Based sGC Functional Assay (CASA Assay), cGMP by HTRF in CHO-K1/sGC cells
Settings: for EC50: cGMP production, 1 hr at 37° C., 4P fit, presence or absence of 1 μM DETA-NO not given, read-out: IP (nM) (inflection point); for % Act.: percent activation relative to maximum cGMP production of Compound A (= 100%); for Emax: CHO-K1, percent activation relative to maximum cGMP production of Compound A (= 100%), read-out: % Act.
Source text: Biological Assay 1: Cell-Based sGC Functional Assay (CASA Assay)
sGC is a heme-containing enzyme that converts GTP to secondary messenger cGMP. Increases in cGMP levels affect several physiological processes including vasorelaxation through multiple downstream pathways. […] Heme-dependent activators (HDAs) preferentially activate sGC containing a ferrous heme group. To determine the effect of sGC activators on enzyme activity, the CASA assay was developed to monitor the generation of cGMP in a cell line that stably expresses the heterodimeric sGC protein.
A CHO-K1 cell line stably expressing the sGC α1/β1 heterodimer was generated using a standard transfection protocol. CHO-K1 cells were transfected with plasmids pIREShyghsGCα1 and pIRESneo-hsGCβ1 simultaneously using FUGENE reagent. Clones that stably express both subunits were selected with hygromycin and neomycin for ˜2 weeks. Clone #7 was chosen for the assay and was designated CHO-K1/sGC. CHO-K1/sGC cells were maintained in F-K12 medium containing 10% heat-inactivated Fetal Bovine Serum (FBS), 100 μg/mL penicillin/streptomycin, 0.5 mg/mL hygromycin and 0.25 mg/mL G418. The cells were then cryopreserved in LN2. On the day of the assay, cells were thawed and resuspended in EBSS Assay Buffer (Sigma, E3024) supplemented with 5 mM MgCl2, 10 mM HEPES (4-(2-hydroxyethyl)piperazine-1-ethanesulfonic acid) and 0.05% BSA (bovine serum albumin) (EAB) and cell density was then adjusted to 4×10^5/mL with EAB. IBMX (3-isobutyl-1-methylxanthin, 0.5 mM) was added to inhibit degradation of cGMP. Compounds were diluted from DMSO stock solutions and added to the assay at a final DMSO concentration of 2.5%. Cells were incubated with compounds in the presence and absence of 1 μM of Diethylenetriamine/nitric oxide adduct (DETA-NO; Sigma, 17018) for 1 hr at 37° C. At the end of the incubation period, the reaction was terminated and the cells were lysed with the detection reagents from Cisbio Kits. The level of intracellular cGMP was determined using an HTRF-based assay kit (CisBio, 62GM2PEC), which detects the displacement of a fluorescence labeled cGMP from its specific antibody. The cGMP produced by test compounds was directly compared to the maximum cGMP production (this value was set to equal 100% activation.) of the published sGC-HDA Compound A:
[drawing 175] (Example 1 in WO 2010/065275, published Jun. 10, 2010). The test compounds' activities were then expressed as a percentage of Compound A, the standard in every experiment. This percent activation was calculated either in the presence or absence of DETA-NO which was then plotted. IP and maximum fold induction was derived using ADA analysis software for 4P fit.
The compounds in the Examples of the instant invention had inflection points (IP) less than or equal to 10 μM and most less than or equal to about 1 μM.

EC50 [nM]	% Act. [%]	Emax [%]	Structure (SMILES)
179	169	–	O=C1Nc2nc(-c3cn4ccnc4c(Cc4ccccc4F)n3)ncc2C1(C(=O)NC1CC1)C1CC1 (single isomer, unassigned) [Example 70A, N,5-dicyclopropyl-2-(8-(2-fluorobenzyl)imidazo[1,2-a]pyrazin-6-yl)-6-oxo-6,7-dihydro-5H-pyrrolo[2,3-d]pyrimidine-5-carboxamide]
316	–	130	CC1(c2ccc(Cl)cn2)C(=O)Nc2nc(-c3cn4c(N)cnc4c(CCC(F)(F)C(F)(F)F)n3)ncc21 (stereo not shown) [Example 87A, 2-(3-Amino-8-(3,3,4,4,4-pentafluorobutyl)imidazo[1,2-a]pyrazin-6-yl)-5-(5-chloropyridin-2-yl)-5-methyl-5H-pyrrolo[2,3-d]pyrimidin-6(7H)-one]
282	–	83	CCCOc1nc(-c2ncc3c(n2)NC(=O)C3(C)c2ccc(F)cc2)cn2ccnc12 (stereo not shown) [Example 92A, 5-(4-Fluorophenyl)-5-methyl-2-(8-propoxyimidazo[1,2-a]pyrazin-6-yl)-5H-pyrrolo[2,3-d]pyrimidin-6(7H)-one]
5	–	93	CCCCc1nc(-c2ncc3c(n2)NC(=O)C3(c2ccc(Cl)cc2F)C2CC2)cn2ccnc12 (stereo not shown) [Example 45A, 2-(8-butylimidazo[1,2-a]pyrazin-6-yl)-5-(4-chloro-2-fluorophenyl)-5-cyclopropyl-5H-pyrrolo[2,3-d]pyrimidin-6(7H)-one]
183	–	70	CC1(c2ccc(Cl)c(F)c2)C(=O)Nc2nc(-c3cn4ccnc4c(CCC(F)(F)F)n3)nc(O)c21 (stereo not shown) [Example 13B, 5-(4-chloro-3-fluorophenyl)-4-hydroxy-5-methyl-2-(8-(3,3,3-trifluoropropyl)imidazo[1,2-a]pyrazin-6-yl)-5H-pyrrolo[2,3-d]pyrimidin-6(7H)-one]
10	–	107	CC1(c2ccc(F)cc2)C(=O)Nc2nc(-c3cn4ccnc4c(CC4CCC4)n3)ncc21 (stereo not shown) [Example 63A, 2-(8-(cyclobutylmethyl)imidazo[1,2-a]pyrazin-6-yl)-5-(4-fluorophenyl)-5-methyl-5H-pyrrolo[2,3-d]pyrimidin-6(7H)-one]
133	–	100	CCCCc1nc(-c2nc(O)c3c(n2)NC(=O)C3(C)c2ccc(F)cc2)cn2ccnc12 (stereo not shown) [Example 79A, 2-(8-Butylimidazo[1,2-a]pyrazin-6-yl)-5-(4-fluorophenyl)-4-hydroxy-5-methyl-5H-pyrrolo[2,3-d]pyrimidin-6(7H)-one]
95	–	130	CCc1nc(-c2cn3ccnc3c(CCC(F)(F)C(F)(F)F)n2)nc2c1C(C)(c1ccc(F)cc1)C(=O)N2 (stereo not shown) [Example 76A, 4-ethyl-5-(4-fluorophenyl)-5-methyl-2-(8-(3,3,4,4,4-pentafluorobutyl)imidazo [1,2-a]pyrazin-6-yl)-5H-pyrrolo[2,3-d]pyrimidin-6(7H)-one]
170	–	117	Cc1nc(-c2cn3ccnc3c(CCC(F)(F)C(F)(F)F)n2)nc2c1C(C)(c1ccc(F)cc1)C(=O)N2 (stereo not shown) [Example 77A, 5-(4-fluorophenyl)-4,5-dimethyl-2-(8-(3,3,4,4,4-pentafluorobutyl)imidazo [1,2-a]pyrazin-6-yl)-5H-pyrrolo[2,3-d]pyrimidin-6(7H)-one]
22	–	110	CC1(c2ccc(Cl)cc2)C(=O)Nc2nc(-c3cn4ccnc4c(CCCC(F)(F)F)n3)ncc21 (stereo not shown) [Example 40A, 5-(4-chlorophenyl)-5-methyl-2-(8-(4,4,4-trifluorobutyl)imidazo[1,2-a]pyrazin-6-yl)-5H-pyrrolo[2,3-d]pyrimidin-6(7H)-one]
107	–	111	CCCCc1nc(-c2nc(O)c3c(n2)NC(=O)C3(c2ccc(Cl)cc2F)C2CC2)cn2ccnc12 (stereo not shown) [Example 33A, 2-(8-butylimidazo[1,2-a]pyrazin-6-yl)-5-(4-chloro-2-fluorophenyl)-5-cyclopropyl-4-hydroxy-5H-pyrrolo[2,3-d]pyrimidin-6(7H)-one]
61	130	–	O=C1Nc2nc(-c3cn4ccnc4c(Cc4ccccc4F)n3)ncc2C1(C(=O)NC1CC1)C1CC1 (single isomer, unassigned) [Example 70B, N,5-dicyclopropyl-2-(8-(2-fluorobenzyl)imidazo[1,2-a]pyrazin-6-yl)-6-oxo-6,7-dihydro-5H-pyrrolo[2,3-d]pyrimidine-5-carboxamide]
36	–	113	CC(C)C1(C)C(=O)Nc2nc(-c3cn4ccnc4c(Cc4ccccc4)n3)ncc21 (single isomer, unassigned) [Example 95A, 2-(8-Benzylimidazo[1,2-a]pyrazin-6-yl)-5-isopropyl-5-methyl-5H-pyrrolo[2,3-d]pyrimidin-6(7H)-one]
7	–	112	CCCCc1nc(-c2ncc3c(n2)NC(=O)C3(c2ccc(F)c(F)c2)C2CC2)cn2ccnc12 (stereo not shown) [Example 43A, 2-(8-butylimidazo[1,2-a]pyrazin-6-yl)-5-cyclopropyl-5-(3,4-difluorophenyl)-5H-pyrrolo[2,3-d]pyrimidin-6(7H)-one]
66	–	88	O=C1Nc2nc(-c3cn4ccnc4c(CCC(F)(F)C(F)(F)F)n3)ncc2C1(c1ccc(F)cc1)C1CC1 (stereo not shown) [Example 11B, 5-cyclopropyl-5-(4-fluorophenyl)-2-(8-(3,3,4,4,4-pentafluorobutyl)imidazo[1,2-a]pyrazin-6-yl)-5H-pyrrolo[2,3-d]pyrimidin-6(7H)-one]
657	–	92	CCCc1nc(-c2nc(O)c3c(n2)NC(=O)C3(C)c2ccc(Cl)cc2)cn2ccnc12 (stereo not shown) [Example 14A, 5-(4-chlorophenyl)-4-hydroxy-5-methyl-2-(8-propylimidazo[1,2-a]pyrazin-6-yl)-5H-pyrrolo[2,3-d]pyrimidin-6(7H)-one]
72	–	166	CC1(c2ccc(F)cc2)C(=O)Nc2nc(-c3cn4ccnc4c(CCC(F)(F)C(F)(F)F)n3)nc(C3CC3)c21 (stereo not shown) [Example 75A, 4-cyclopropyl-5-(4-fluorophenyl)-5-methyl-2-(8-(3,3,4,4,4-pentafluorobutyl)imidazo [1,2-a]pyrazin-6-yl)-5H-pyrrolo[2,3-d]pyrimidin-6(7H)-one]

Reference: patent publication US10213429B2, “Imidazo-pyrazinyl derivatives useful as soluble guanylate cyclase activators” (Merck Sharp & Dohme Corp., priority 2015, dated 2019)
